Source: patent US20190376039A1, “CELLS WITH IMPROVED INWARD RECTIFIER CURRENT” (priority 2018, published 2019)

How the values were obtained:
[1] = system: IK1-induced ventricular-like SC-CMs; experiment: Action potentials under current clamp in paced IK1-induced SC-CMs (di-LQTS model); conditions: for APD10 / APD50 / APD70 / APD90 / RMP: E4031 20 nM, mean SE; for slope of linear regression, EAD take-off potential vs. peak EAD voltage: 100 nM E4031
Protocol: SC-CMs were singularized and plated before cellular electrophysiology experiments on 12-mm poly-d-lysine/laminin or SyntheMax pre-coated coverslips. IK1 was induced by treating singularized cells with doxycycline (2 μM) (Thermo Fisher Scientific) for 48-72 hours prior to cellular electrophysiology analysis. Borosilicate glass pipettes (3-4 MΩ) were used (Model P-97; Sutter Instruments, Novato, Calif.). Whole cell capacitance was calculated by using the time domain technique (20).
AP were measured under current clamp at 32° C. using an Axopatch 200B amplifier and pCLAMP 10 (Molecular Devices, Sunnyvale, Calif.). […] The pipette solution comprised 150 mM K-gluconate, 5 mM EGTA, 10 mM HEPES, and 5 mM MgATP (pH 7.2, KOH). Myocytes were paced at 0.5, 1, 2, and 3 Hz with a depolarizing pulse from a programmable digital stimulator (D55000; WPI, Sarasota, Fla.). AP properties including AP amplitude; resting membrane potential; AP duration at 10% (APD10), 50% (APD50), 70% (APD70), and 90% (APD90) of repolarization; and maximum upstroke velocity (dV/dtmax) were measured (pCLAMP 10; Matlab 6.0, Natick, Mass.). […] Myocytes were paced at 0.5 and 1 Hz. […] AP properties identified above were re-measured.

[2] = system: ES-Kir2.1 and iPS-Kir2.1 cell lines; experiment: Initiation of cardiomyocyte differentiation (Day 0 medium); assay type: cell-based, human; conditions: 12 μM CHIR99021 in RPMI/B27-insulin
Protocol: The ES-Kir2.1 and iPS-Kir2.1 cell lines were cultured in feeder-free media and prepared for differentiation as previously described with modifications (see, e.g., Lian et al. (2012) “Robust cardiomyocyte differentiation from human pluripotent stem cells via temporal modulation of canonical Wnt signaling” Proc Natl Acad Sci USA 109: E1848-57; Lian et al. (2013) “Directed cardiomyocyte differentiation from human pluripotent stem cells by modulating Wnt/6-catenin signaling under fully defined conditions” Nature Protocols 8: 162-75, each of which is incorporated herein by reference in its entirety). In particular, five days prior to differentiation (“Differentiation Day −5”), cells were harvested and seeded. Media was removed from the stem cell cultures and the cells were and washed with 1 mL DPBS per well. Next, 1 mL of Versene was added to each well and the cells were incubated at 37° C. for 5 minutes. Cells were transferred to a 50-ml tube, an equal volume of medium was added, and the cells were resuspended by gentle pipetting to singularize the cells. Cells were counted, pelleted, and resuspended in culture medium (e.g., mTeSR1, Stem Flex, etc.) to provide cells at a concentration that is pipetted into 6-well plates at approximately 2 million cells per 6-well plate. […]

[3] = 0.5 Hz pacing, E4031 20 nM and 100 nM, ATX-II 30 nM
[4] = drug vs baseline, E4031, ATX-II 30 nM
[5] = 20 nM E4031, 0.5 Hz pacing, p<0.01

Compound	AP prolongation (APD) compared to control [1, 3]	induction of early afterdepolarizations (EADs) [1, 3]	APD10 ([1]; 0.5 Hz pacing, ATX-II 30 nM) [ms]	APD50 ([1]; 0.5 Hz pacing, ATX-II 30 nM) [ms]	APD70 ([1]; 0.5 Hz pacing, ATX-II 30 nM) [ms]	APD90 ([1]; 0.5 Hz pacing, ATX-II 30 nM) [ms]	RMP ([1]; 0.5 Hz pacing, ATX-II 30 nM) [mV]	effect on RMP [1, 4]	effect on dV/dt max [1, 4]	effect on APD10 compared with control ([1]; 20 nM E4031, 0.5 Hz pacing)	effect on APD50 compared with control ([1]; 20 nM E4031, 0.5 Hz pacing)	effect on APD70 compared with control [1, 5]	effect on APD90 compared with control [1, 5]	slope of linear regression, EAD take-off potential vs. peak EAD voltage ([1]; FIG. 4C)	slope of linear regression, EAD take-off potential vs. peak EAD voltage ([1]; FIG. 4D, second independent experiment)	cell killing at initiation of differentiation [2]
ATX-II: late sodium current agonist (Alamone Labs); late INa enhancing drug (delayed channel inactivation)	markedly increased	did not occur	45.2 ± 25.0	869.4 ± 111.7	1025.6 ± 107.4	1056.9 ± 106.5	−76.2 ± 3.65	no difference	no difference	–	–	–	–	–	–	–
Cc1cccc(CCN2CCC(C(=O)c3ccc(NS(C)(=O)=O)cc3)CC2)n1 [E4031]	dose-dependent AP prolongation	–	131.1 ± 53.4	633.8 ± 153.2	767.5 ± 164.8	802.4 ± 172.0	−70.6 ± 4.11	remains normally polarized and stable	–	No significant effect	No significant effect	significantly prolongs	significantly prolongs	−2.6±0.1	−1.68±0.09	–
Cc1c[nH]c(-c2cnc(NCCNc3ccc(C#N)cn3)nc2-c2ccc(Cl)cc2Cl)n1 [CHIR99021]	–	–	–	–	–	–	–	–	–	–	–	–	–	–	–	kills all or most of the cells
